Patent US20070197559A1, “Aryl substituted purine analogues” (priority 2004, published 2007)

Target: T1, human capsaicin receptor (Homo sapiens, UniProt Q8NER1)
T1 construct: transfected with the pBK-CMV expression construct encoding the full length human capsaicin receptor; expressed in transfected cells
T1 sequence (Q8NER1 whole entry): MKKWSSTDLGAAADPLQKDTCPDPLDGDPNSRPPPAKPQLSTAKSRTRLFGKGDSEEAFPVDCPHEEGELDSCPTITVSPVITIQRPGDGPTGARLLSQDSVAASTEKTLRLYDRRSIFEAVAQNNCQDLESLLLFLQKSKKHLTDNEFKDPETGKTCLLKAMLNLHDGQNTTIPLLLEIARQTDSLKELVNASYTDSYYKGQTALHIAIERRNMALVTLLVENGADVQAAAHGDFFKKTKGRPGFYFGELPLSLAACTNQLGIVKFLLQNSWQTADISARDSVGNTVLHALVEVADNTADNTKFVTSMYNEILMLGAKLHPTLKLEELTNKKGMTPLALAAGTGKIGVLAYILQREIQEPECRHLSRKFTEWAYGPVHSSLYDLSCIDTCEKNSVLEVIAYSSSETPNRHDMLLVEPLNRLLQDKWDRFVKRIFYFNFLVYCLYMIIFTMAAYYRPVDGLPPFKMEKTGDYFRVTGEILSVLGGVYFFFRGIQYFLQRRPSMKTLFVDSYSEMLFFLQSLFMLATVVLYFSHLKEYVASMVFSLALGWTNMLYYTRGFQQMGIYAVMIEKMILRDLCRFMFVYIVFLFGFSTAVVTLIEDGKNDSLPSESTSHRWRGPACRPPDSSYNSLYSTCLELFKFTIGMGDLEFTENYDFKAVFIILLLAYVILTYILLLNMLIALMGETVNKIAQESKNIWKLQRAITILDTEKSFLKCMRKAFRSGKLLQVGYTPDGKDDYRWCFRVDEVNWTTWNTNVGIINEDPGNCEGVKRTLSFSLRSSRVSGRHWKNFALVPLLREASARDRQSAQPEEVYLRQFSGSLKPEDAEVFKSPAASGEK
Experiment: Calcium mobilization assay, determination of antagonist activity
Assay type: cell-based
Conditions: cells expressing human capsaicin receptor, capsaicin-induced fluorescence response, Example 6
Method: A cDNA encoding full length human capsaicin receptor (SEQ ID NO:1, 2 or 3 of U.S. Pat. No. 6,482,611) is subcloned in the plasmid pBK-CMV (Stratagene, La Jolla, Calif.) for recombinant expression in mammalian cells.
Human embryonic kidney (HEK293) cells are transfected with the pBK-CMV expression construct encoding the full length human capsaicin receptor using standard methods. The transfected cells are selected for two weeks in media containing G418 (400 μg/ml) to obtain a pool of stably transfected cells. Independent clones are isolated from this pool by limiting dilution to obtain clonal stable cell lines for use in subsequent experiments.
Cells transfected with expression plasmids (as described in Example 4) and thereby expressing human capsaicin receptor are seeded and grown to 70-90% confluency in FALCON black-walled, clear-bottomed 96-well plates (#3904, BECTON-DICKINSON, Franklin Lakes, N.J.). The culture medium is emptied from the 96 well plates and FLUO-3 AM calcium sensitive dye (Molecular Probes, Eugene, Oreg.) is added to each well (dye solution: 1 mg FLUO-3 AM, 440 μL DMSO and […] pluronic acid in DMSO, diluted 1:250 in Krebs-Ringer HEPES (KRH) buffer (25 mM HEPES, 5 mM KCl, 0.96 mM NaH2PO4, 1 mM MgSO4, 2 mM CaCl2, 5 mM glucose, 1 mM probenecid, pH 7.4), 50 μl diluted solution per well). Plates are covered with aluminum foil and incubated at 37° C. for 1-2 hours in an environment containing 5% CO2. After the incubation, the dye is emptied from the plates, and the cells are washed once with KRH buffer, and resuspended in KRH buffer.
To measure the ability of a test compound to agonize or antagonize a calcium mobilization response in cells expressing capsaicin receptors to capsaicin or other vanilloid agonist, the EC50 of the agonist capsaicin is first determined. An additional 20 μl of KRH buffer and 1 μl DMSO is added to each well of cells, prepared as described above. 100 μl capsaicin in KRH buffer is automatically transferred by the FLIPR instrument to each well. Capsaicin-induced calcium mobilization is monitored using either FLUOROSKAN ASCENT (Labsystems; Franklin, Mass.) or FLIPR (fluorometric imaging plate reader system; Molecular Devices, Sunnyvale, Calif.) instruments. Data obtained between 30 and 60 seconds after agonist application are used to generate an 8-point concentration response curve, with final capsaicin concentrations of 1 nM to 3 μM. KALEIDAGRAPH software (Synergy Software, Reading, Pa.) is used to fit the data to the equation: y=a*(1/(1+(b/x)^c)) to determine the 50% excitatory concentration (EC50) for the response. In this equation, y is the maximum fluorescence signal, x is the concentration of the agonist or antagonist (in this case, capsaicin), a is the Emax, b corresponds to the EC50 value and c is the Hill coefficient. Determination of Agonist Activity
Test compounds are dissolved in DMSO, diluted in 20 μl KRH buffer so that the final concentration of test compounds in the assay well is between 1 μM and 5 μM, and added to cells prepared as described above. The 96 well plates containing prepared cells and test compounds are incubated in the dark, at room temperature for 0.5 to 6 hours. It is important that the incubation not continue beyond 6 hours. Just prior to determining the fluorescence response, 100 μl capsaicin in KRH buffer at twice the EC50 concentration determined as described above is automatically added by the FLIPR instrument to each well of the 96 well plate for a final sample volume of 200 μl and a final capsaicin concentration equal to the EC50. The final concentration of test compounds in the assay wells is between 1 μM and 5 μM. […] The concentration of antagonist required to provide a 50% decrease, relative to the response observed in the presence of capsaicin and without antagonist, is the IC50 for the antagonist, and is preferably below 1 micromolar, 100 nanomolar, 10 nanomolar or 1 nanomolar.
In the case of `N#Cc1ccc(Nc2ncnc3c2ncn3-c2cccc(Cl)c2)cc1` [4-[9-(3-Chloro-phenyl)-9H-purin-6-ylamino]-benzonitrile], the IC50 is reported as ≤ 1000 nM. For `CC(C)COCc1nc(Nc2ccc(C(C)(C)C#N)cc2)c2cnn(-c3ccccc3Cl)c2n1` [2-{4-[1-(2-Chloro-phenyl)-6-isobutoxymethyl-1H-pyrazolo[3,4-d]pyrimidin-4-ylamino]-phenyl}-2-methyl-propionitrile], the IC50 was ≤ 1000 nM. In the case of `CC(C)(C#N)c1ccc(Nc2ncnc3c2ncn3-c2cccc(Cl)c2)cc1` [2-{4-[9-(3-Chloro-phenyl)-9H-purin-6-ylamino]-phenyl}-2-methyl-propionitrile], the IC50 is reported as ≤ 1000 nM. In the case of `CC(C)COCc1nc(Nc2ccc(C(C)(C)C)cc2)c2cnn(-c3ccccc3Cl)c2n1` [(4-tert-Butyl-phenyl)-[1-(2-chloro-phenyl)-6-isobutoxymethyl-1H-pyrazolo[3,4-d]pyrimidin-4-yl]-amine], the IC50 is reported as ≤ 1000 nM. With `CC(C)(C)c1ccc(Nc2ncnc3c2cnn3-c2ncccc2Cl)cc1` [(4-tert-Butyl-phenyl)-[1-(3-chloro-pyridin-2-yl)-1H-pyrazolo[3,4-d]pyrimidin-4-yl]-amine] the IC50 was ≤ 1000 nM. In the case of `CC(C)COCc1nc(Nc2ccc(C(C)C)cc2)c2cnn(-c3ccccc3Cl)c2n1` [[1-(2-Chloro-phenyl)-6-isobutoxymethyl-1H-pyrazolo[3,4-d]pyrimidin-4-yl]-(4-isopropyl-phenyl)-amine], the IC50 is reported as ≤ 1000 nM. With `FC(F)(F)c1ccc(Nc2ncnc3c2cnn3-c2ncccc2Cl)cc1` [[1-(3-Chloro-pyridin-2-yl)-1H-pyrazolo[3,4-d]pyrimidin-4-yl]-(4-trifluoromethyl-phenyl)-amine] the IC50 was ≤ 1000 nM. For `CC(C)(C)c1ccc(Nc2ncnc3c2ncn3Cc2ccccc2Cl)cc1` [(4-tert-Butyl-phenyl)-[9-(2-chloro-benzyl)-9H-purin-6-yl]-amine], the IC50 was ≤ 1000 nM. For `CC(C)(C)c1ccc(Nc2ncnc3c2ncn3-c2cccc(Cl)c2)cc1` [(4-tert-Butyl-phenyl)-[9-(3-chloro-phenyl)-9H-purin-6-yl]-amine], the IC50 was ≤ 1000 nM. With `CC(C)COCc1nc(Nc2ccc(C(F)(F)F)cc2)c2cnn(-c3ccccc3Cl)c2n1` [[1-(2-Chloro-phenyl)-6-isobutoxymethyl-1H-pyrazolo[3,4-d]pyrimidin-4-yl]-(4-trifluoromethyl-phenyl)-amine] the IC50 was ≤ 1000 nM. With `FC(F)(F)c1ccc(Nc2ncnc3c2ncn3-c2cccc(Cl)c2)cc1` [[9-(3-Chloro-phenyl)-9H-purin-6-yl]-(4-trifluoromethyl-phenyl)-amine] the IC50 was ≤ 1000 nM. In the case of `Clc1ccc(Nc2ncnc3c2ncn3-c2cccc(Cl)c2)cc1` [(4-Chloro-phenyl)-[9-(3-chloro-phenyl)-9H-purin-6-yl]-amine], the IC50 is reported as ≤ 1000 nM. With `Cc1nc2c(Nc3ccc(C(C)(C)C)cc3)ncnc2n1-c1ccccc1Cl` [(4-tert-Butyl-phenyl)-[9-(2-chloro-phenyl)-8-methyl-9H-purin-6-yl]amine] the IC50 was ≤ 1000 nM. With `FC(F)(F)c1ccc(Nc2ncnc3c2ncn3Cc2ccccc2Cl)cc1` [[9-(2-Chloro-benzyl)-9H-purin-6-yl]-(4-trifluoromethyl-phenyl)-amine] the IC50 was ≤ 1000 nM. With `O=S(=O)(c1ccc(Nc2ncnc3c2cnn3-c2ccccc2Cl)cc1)C(F)(F)F` [[1-(2-Chloro-phenyl)-1H-pyrazolo[3,4-d]pyrimidin-4-yl]-(4-trifluoromethanesulfonyl-phenyl)-amine] the IC50 was ≤ 1000 nM. With `CC(C)(C)c1ccc(Nc2ncnc3c2ncn3-c2ccccc2Cl)cc1` [(4-tert-Butyl-phenyl)-[9-(2-chloro-phenyl)-9H-purin-6-yl]-amine] the IC50 was ≤ 1000 nM. In the case of `C[C@@H]1CN(Cc2nc(Nc3ccc(C(F)(F)F)cc3)c3cnn(-c4ccccc4Cl)c3n2)C[C@H](C)O1` [[1-(2-Chloro-phenyl)-6-(2,6-dimethyl-morpholin-4-ylmethyl)-1H-pyrazolo[3,4-d]pyrimidin-4-yl]-(4-trifluoromethyl-phenyl)-amine], the IC50 is reported as ≤ 1000 nM. With `C[C@@H]1CN(Cc2nc(Nc3ccc(C(C)(C)C)cc3)c3cnn(-c4ccccc4Cl)c3n2)C[C@H](C)O1` [(4-tert-Butyl-phenyl)-[1-(2-chloro-phenyl)-6-(2,6-dimethyl-morpholin-4-ylmethyl)-1H-pyrazolo[3,4-d]pyrimidin-4-yl]-amine] the IC50 was ≤ 1000 nM.

Target: vanilloid receptor (VR) (Homo sapiens, UniProt Q8NER1)
Sequence (Q8NER1 whole entry): as above
Experiment: not given
Conditions: typical value, background; read-out: Ki value (binding to VR); cited from earlier work
For `Cl.Cl.Cl.Cl.Cl.Cl.N.N.N.N.N.N.N.N.N.N.N.N.N.N.[O-2].[O-2].[Ru+3].[Ru+3].[Ru+4]` [ruthenium red], the Ki is listed as ≥ 140000 nM.
